# Test results published in ChEMBL document CHEMBL5634121, “Discovery of novel G9a/GLP covalent inhibitors for the treatment of triple-negative breast cancer” (Eur J Med Chem, 2023).
# Calls of active or inactive are those of the source. The calls are words filed in the database; no cut-off is given here.
# Key:
# [1] = molecular target: T1, Histone-lysine N-methyltransferase EHMT1 (Homo sapiens, UniProt Q9H9B1); assay: Inhibition of GLP (unknown origin)
# T1 sequence (Q9H9B1 whole entry): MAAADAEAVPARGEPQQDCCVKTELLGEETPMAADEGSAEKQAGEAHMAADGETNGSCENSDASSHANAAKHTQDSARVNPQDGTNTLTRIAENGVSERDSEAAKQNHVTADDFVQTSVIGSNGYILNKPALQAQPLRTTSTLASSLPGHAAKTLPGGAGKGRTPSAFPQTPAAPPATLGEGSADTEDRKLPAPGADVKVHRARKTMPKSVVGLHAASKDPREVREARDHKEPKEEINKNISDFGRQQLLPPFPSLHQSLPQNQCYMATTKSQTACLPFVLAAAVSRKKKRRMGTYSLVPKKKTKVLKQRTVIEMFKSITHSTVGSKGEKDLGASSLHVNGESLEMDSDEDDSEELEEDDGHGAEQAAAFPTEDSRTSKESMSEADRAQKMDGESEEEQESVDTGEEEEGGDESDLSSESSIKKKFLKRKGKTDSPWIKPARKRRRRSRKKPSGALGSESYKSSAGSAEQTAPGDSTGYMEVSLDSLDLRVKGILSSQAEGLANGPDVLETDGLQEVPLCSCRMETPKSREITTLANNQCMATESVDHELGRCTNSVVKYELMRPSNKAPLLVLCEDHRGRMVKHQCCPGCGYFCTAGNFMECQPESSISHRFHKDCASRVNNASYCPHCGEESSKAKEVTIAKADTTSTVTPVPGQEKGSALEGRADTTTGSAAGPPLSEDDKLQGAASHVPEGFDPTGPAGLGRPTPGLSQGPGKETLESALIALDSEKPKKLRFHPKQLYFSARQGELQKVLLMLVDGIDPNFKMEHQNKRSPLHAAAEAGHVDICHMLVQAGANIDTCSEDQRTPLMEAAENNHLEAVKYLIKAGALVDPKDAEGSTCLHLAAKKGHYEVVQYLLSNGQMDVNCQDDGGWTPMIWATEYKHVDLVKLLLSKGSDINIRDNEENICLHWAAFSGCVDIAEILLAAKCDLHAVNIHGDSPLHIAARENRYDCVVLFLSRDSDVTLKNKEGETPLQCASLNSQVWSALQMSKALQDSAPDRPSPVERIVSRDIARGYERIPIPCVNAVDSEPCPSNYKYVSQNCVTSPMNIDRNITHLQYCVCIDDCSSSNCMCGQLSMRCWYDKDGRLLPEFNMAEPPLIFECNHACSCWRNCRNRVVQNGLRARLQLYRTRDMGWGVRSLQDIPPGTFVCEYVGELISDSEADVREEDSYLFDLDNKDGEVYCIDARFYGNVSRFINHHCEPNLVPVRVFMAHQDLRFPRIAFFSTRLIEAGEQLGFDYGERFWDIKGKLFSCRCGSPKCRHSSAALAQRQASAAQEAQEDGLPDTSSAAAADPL
# [2] = tested on: MDA-MB-231; assay: Induction of apoptosis in human MDA-MB-231 cells assessed as necrotic cells at 20 uM incubated for 72 hrs by Annexin V and PI staining based flow cytometry analysis (reference value: 0.32 %); type: functional
# [3] = tested on: MDA-MB-231; assay: Induction of apoptosis in human MDA-MB-231 cells assessed as early apoptotic cells at 20 uM incubated for 72 hrs by Annexin V and PI staining based flow cytometry analysis (reference value: 0.92 %); type: functional
# [4] = tested on: MDA-MB-231; assay: Induction of apoptosis in human MDA-MB-231 cells assessed as viable cells at 20 uM incubated for 72 hrs by Annexin V and PI staining based flow cytometry analysis (reference value: 98.31 %); type: functional; conditions: read-out: Activity
# [5] = molecular target: T2, Histone-lysine N-methyltransferase EHMT1 (Homo sapiens) (UniProt Q9H9B1); assay: Inhibition of GLP (unknown origin) at 1 uM
# T2 sequence (whole entry): T1 sequence (Q9H9B1 whole entry)
# [6] = molecular target: T3, Histone-lysine N-methyltransferase EHMT2 (Homo sapiens) (UniProt Q96KQ7); assay: Inhibition of G9a (unknown origin) at 1 uM by AlphaLISA immunodetection assay relative to control
# T3 sequence (whole entry): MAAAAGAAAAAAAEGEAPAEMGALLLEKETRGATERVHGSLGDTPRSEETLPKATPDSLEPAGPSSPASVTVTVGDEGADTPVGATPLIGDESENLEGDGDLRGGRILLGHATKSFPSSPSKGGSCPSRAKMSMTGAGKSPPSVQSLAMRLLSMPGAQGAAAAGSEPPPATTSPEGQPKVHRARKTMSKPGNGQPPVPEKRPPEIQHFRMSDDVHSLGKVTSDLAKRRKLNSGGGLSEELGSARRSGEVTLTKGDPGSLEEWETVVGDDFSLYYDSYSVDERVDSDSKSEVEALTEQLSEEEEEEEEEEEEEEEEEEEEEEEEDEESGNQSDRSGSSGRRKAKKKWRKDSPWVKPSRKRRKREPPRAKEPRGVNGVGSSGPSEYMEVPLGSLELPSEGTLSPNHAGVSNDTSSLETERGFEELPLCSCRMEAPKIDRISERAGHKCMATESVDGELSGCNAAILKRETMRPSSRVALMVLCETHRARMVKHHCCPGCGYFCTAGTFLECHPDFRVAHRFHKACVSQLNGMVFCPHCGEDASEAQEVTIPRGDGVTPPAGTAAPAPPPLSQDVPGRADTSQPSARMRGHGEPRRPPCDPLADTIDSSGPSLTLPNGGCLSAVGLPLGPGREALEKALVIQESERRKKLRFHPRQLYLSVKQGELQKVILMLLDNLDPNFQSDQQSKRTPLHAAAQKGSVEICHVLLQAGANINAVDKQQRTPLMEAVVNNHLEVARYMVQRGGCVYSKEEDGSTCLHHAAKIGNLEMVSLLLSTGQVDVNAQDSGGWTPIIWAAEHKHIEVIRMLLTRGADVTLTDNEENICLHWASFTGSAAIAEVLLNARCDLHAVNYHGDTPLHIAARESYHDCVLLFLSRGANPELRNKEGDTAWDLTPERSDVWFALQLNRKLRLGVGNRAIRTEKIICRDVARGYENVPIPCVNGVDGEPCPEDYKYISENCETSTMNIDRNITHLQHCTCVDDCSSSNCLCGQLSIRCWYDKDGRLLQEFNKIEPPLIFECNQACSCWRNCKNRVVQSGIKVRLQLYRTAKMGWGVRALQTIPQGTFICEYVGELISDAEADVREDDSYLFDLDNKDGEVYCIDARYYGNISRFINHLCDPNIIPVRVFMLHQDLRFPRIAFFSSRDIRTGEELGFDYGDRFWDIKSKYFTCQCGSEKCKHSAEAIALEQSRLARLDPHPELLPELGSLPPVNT
# [7] = tested on: MDA-MB-231; assay: Induction of apoptosis in human MDA-MB-231 cells assessed as viable cells at 5 uM incubated for 72 hrs by Annexin V and PI staining based flow cytometry analysis (reference value: 98.31 %); type: functional; conditions: read-out: Activity
# [8] = tested on: MDA-MB-231; assay: Induction of cell cycle arrest in human MDA-MB-231 cells assessed as accumulation of cells at G2/M phase incubated for 72 hrs by PI/RNase staining based flow cytometric analysis; type: functional; conditions: dose 5-20 µM
# [9] = tested on: MDA-MB-231; assay: Inhibition of colony formation in human MDA-MB-231 cells at 1 to 10 uM refreshed every 4 days for 12 days by crystal violet staining based assay; type: functional, cell-based; conditions: dose 1-10 µM, time 12.0 day
compound,measurement,setting,value
C=CC(=O)Nc1cccc(-c2nc(NC3CCN(C)CC3)c3cc(OC)c(OC)cc3n2)c1,IC50,[1],458 nM
same,Activity,[2],4.23%
same,Activity,[3],21.6%
same,viability at 20 µM,[4],39.3%
same,inhibition,[5],Active
same,inhibition,[6],96%
same,viability at 5 µM,[7],94.6%
same,Activity,[8],Dose-Dependent Effect
same,inhibition,[9],Active
